Assays:
[1] = tested on: colon and rectal cancer cell line, SW-620; assay: Inhibitory effect on growth of cancer cell line SW-620, SRB; assay type: cell-based; details: not having overexpressed EGFR and EGFR2
Procedure, shortened: (§1)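 Cells were cultured in DMEM with 10% FBS. Compounds were applied at 10 μM with 10-fold serial dilution to 10^−4, DMSO <1%, for 72 h at 37 °C. Cells were then TCA-fixed and stained with 0.4% SRB, and absorbance was read at 570 nm after solubilisation in 10 mM Tris base.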

[2] = tested on: breast cancer cell line, SK-Br3; assay: Inhibitory effect on growth of cancer cell line SK-Br3, SRB; assay type: cell-based; details: overexpressed EGFR2 (HER-2)
Procedure, shortened: as §1

VEGFR2 (KDR) = VEGFR2 (KDR) (Homo sapiens (Human), UniProt P35968); assay: VEGFR2 (KDR) enzyme assay, fluorescence polarization; assay type: biochemical; details: 5 μM ATP, poly(Glu, Tyr) substrate
Chain of VEGFR2 (KDR) (P35968 20-1356): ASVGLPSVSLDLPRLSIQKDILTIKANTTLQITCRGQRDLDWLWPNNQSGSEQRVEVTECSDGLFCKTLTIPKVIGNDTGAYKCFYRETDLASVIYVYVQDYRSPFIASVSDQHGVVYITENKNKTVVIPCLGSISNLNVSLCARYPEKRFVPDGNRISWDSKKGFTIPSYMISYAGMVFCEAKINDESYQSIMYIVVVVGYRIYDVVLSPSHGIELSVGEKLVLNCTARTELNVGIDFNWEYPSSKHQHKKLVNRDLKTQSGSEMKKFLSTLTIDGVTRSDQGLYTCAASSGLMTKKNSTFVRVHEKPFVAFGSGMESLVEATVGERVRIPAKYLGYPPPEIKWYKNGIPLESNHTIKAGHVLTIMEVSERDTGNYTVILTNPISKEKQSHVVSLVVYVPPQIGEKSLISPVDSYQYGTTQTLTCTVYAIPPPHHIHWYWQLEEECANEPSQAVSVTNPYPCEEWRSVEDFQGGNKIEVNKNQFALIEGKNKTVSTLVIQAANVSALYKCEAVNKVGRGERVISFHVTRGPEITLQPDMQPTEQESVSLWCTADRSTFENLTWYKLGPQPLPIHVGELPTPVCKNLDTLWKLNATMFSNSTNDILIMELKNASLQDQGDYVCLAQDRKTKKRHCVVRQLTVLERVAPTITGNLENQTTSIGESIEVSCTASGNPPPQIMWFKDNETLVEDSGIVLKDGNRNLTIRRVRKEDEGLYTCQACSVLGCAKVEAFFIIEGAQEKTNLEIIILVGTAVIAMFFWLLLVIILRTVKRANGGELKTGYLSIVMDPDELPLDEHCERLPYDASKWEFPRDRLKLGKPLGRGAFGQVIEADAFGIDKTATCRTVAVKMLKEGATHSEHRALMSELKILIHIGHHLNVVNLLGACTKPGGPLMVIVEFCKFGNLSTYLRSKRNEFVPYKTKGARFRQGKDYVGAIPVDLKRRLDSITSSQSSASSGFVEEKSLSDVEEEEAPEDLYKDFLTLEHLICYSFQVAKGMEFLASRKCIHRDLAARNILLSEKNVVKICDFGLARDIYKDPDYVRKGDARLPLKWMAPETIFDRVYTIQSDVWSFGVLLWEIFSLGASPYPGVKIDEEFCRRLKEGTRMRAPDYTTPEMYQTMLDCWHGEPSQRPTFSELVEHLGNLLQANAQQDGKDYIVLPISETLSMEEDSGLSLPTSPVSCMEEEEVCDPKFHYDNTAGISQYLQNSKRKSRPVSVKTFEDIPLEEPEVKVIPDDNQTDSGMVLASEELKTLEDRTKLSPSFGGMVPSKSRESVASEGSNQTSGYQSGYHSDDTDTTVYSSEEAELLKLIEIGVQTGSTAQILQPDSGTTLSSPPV
Procedure, shortened: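 Autophosphorylation read by fluorescence polarization: VEGFR2 (Proquinase) at 200 ng/10 μl with 5 μM ATP and 10 ng/ml poly(Glu,Tyr) 4:1, in 20 mM HEPES pH 7.4, 5 mM MgCl2, 2 mM MnCl2, 50 μM Na3VO4. Reaction 1 h at room temperature, EDTA stop, then anti-phosphotyrosine antibody/tracer for 30 min in the dark.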

[3] = tested on: skin cancer cell line, A431; assay: Inhibitory effect on growth of cancer cell line A431, SRB; assay type: cell-based; details: overexpressed EGFR1 (HER-1)
Procedure, shortened: as §1

EGFR1 (HER-1) = EGFR1 (HER-1) (Homo sapiens (Human), UniProt P00533); assay: EGFR1 (HER-1) enzyme assay, fluorescence polarization; assay type: biochemical; details: 100 μM ATP, poly(Glu, Tyr) substrate
[4] = tested on: Human Umbilical Vein Endothelial Cell (HUVEC); assay: Inhibitory effect on growth of human umbilical vein endothelial cell (HUVEC), MTS; assay type: cell-based; details: 10 ng/ml VEGF, absorbance 490 nm

| IC50 ([1]; Homo sapiens, 72 h) [nM] | IC50 ([2]; Homo sapiens, SK-BR-3, 72 h) [nM] | IC50 (VEGFR2 (KDR)) [nM] | IC50 ([3]; Homo sapiens, A-431, 72 h) [nM] | IC50 (EGFR1 (HER-1)) [nM] | IC50 ([1]; 72 hours) [nM] | IC50 ([2]; 72 hours) [nM] | IC50 ([3]; 72 hours) [nM] | Molecule | IC50 ([4]; Homo sapiens, 96 h) [nM] | IC50 ([4]; 96 hours) [nM] |
| --- | --- | --- | --- | --- | --- | --- | --- | --- | --- | --- |
| 10000 | 147 | 136 | 25 | 20 |  |  |  | C=CC(=O)Nc1cc2c(Nc3ccc(Br)cc3F)ncnc2cc1OCC1CCN(C(=O)NCC)CC1 [Example 171, 4-[6-acryloylamino-4-(4-bromo-2-fluoro-phenylamino)-quinazolin-7-yloxymethyl]-piperidine-1-carboxylic acid ethylamide] | 150 |  |
| 2020 | 64 | 154 | 11 | 3 |  |  |  | C=CC(=O)Nc1cc2c(Nc3ccc(Br)cc3F)ncnc2cc1OCCCNC [Example 17, N-[4-(4-bromo-2-fluoro-phenylamino)-7-(3-methylamino-propoxy)-quinazolin-6-yl]-acrylamide] | 87 |  |
| 2320 | 1020 | 789 | 1030 | 876 |  |  |  | C=CC(=O)Nc1cc2c(Nc3cc(Cl)c(Cl)cc3Cl)ncnc2cc1OCCNC(C)=O [Example 122, N-[7-(2-acetylamino-ethoxy)-4-(2,4,5-trichloro-phenylamino)-quinazolin-6-yl]-acrylamide] | 913 |  |
| 9570 | 939 | 685 | 125 | 136 |  |  |  | C=CC(=O)Nc1cc2c(Nc3ccc(Br)cc3F)ncnc2cc1OCCNC(=O)CNC [Example 60, N-{4-(4-bromo-2-fluoro-phenylamino)-7-[2-(2-methylamino-acetylamino)-ethoxy]-quinazolin-6-yl}-acrylamide] | 689 |  |
| 2540 | 67 | 458 | 35 | 26 |  |  |  | C=CC(=O)Nc1cc2c(Nc3ccc(Br)cc3F)ncnc2cc1OCCNC(=O)NCCC [Example 34, N-{4-(4-bromo-2-fluoro-phenylamino)-7-[2-(3-propyl-ureido)-ethoxy]-quinazolin-6-yl}-acrylamide] | 678 |  |
| 2530 | 55 | 523 | 93 | 90 |  |  |  | C=CCCOc1cc2ncnc(Nc3ccc(Br)cc3F)c2cc1NC(=O)C=C [Example 31, N-[4-(4-bromo-2-fluoro-phenylamino)-7-but-3-enyloxy-quinazolin-6-yl]-acrylamide] | 686 |  |
| 4590 | 243 | 854 | 62 | 69 |  |  |  | C=CC(=O)Nc1cc2c(Nc3ccc(Br)cc3F)ncnc2cc1OCCNC(=O)C(=C)C [Example 49, N-{2-[6-acryloylamino-4-(4-bromo-2-fluoro-phenylamino)-quinazolin-7-yloxy]-ethyl}-2-methyl-acrylamide] | 964 |  |
|  |  | 954 |  | 32 | 10000 | 194 | 33 | N-{2-[6-acryloylamino-4-(4-bromo-2-fluoro-phenylamino)-quinazolin-7-yloxy]-ethyl}-butylamide [Example 51] |  | 987 |
| 8460 | 1350 | 500 | 168 | 56 |  |  |  | C=CC(=O)Nc1cc2c(Nc3ccc(Br)cc3F)ncnc2cc1OCc1ccncc1 [Example 6, N-[4-(4-bromo-2-fluoro-phenylamino)-7-(pyridin-4-ylmethoxy)-quinazolin-6-yl]-acrylamide] | 450 |  |
| 2980 | 4400 | 251 | 100 | 98 |  |  |  | C=CC(=O)Nc1cc2c(Nc3ccc(Br)cc3F)ncnc2cc1OCCNC(=O)C(=O)OCC [Example 71, {2-[6-acryloylamino-4-(4-bromo-2-fluoro-phenylamino)-quinazolin-7-yloxy]-ethyl}-oxalamic acid ethylester] | 286 |  |

— US8846699B2, “Quinazoline derivatives as a multiplex inhibitor and method for the preparation thereof” (Hanmi Pharm. Co., Ltd., priority 2005, dated 2014)
